Source: publication PMC7272617 (Scientific Reports, 2020)
Values after ≈ are worked out from the molar mass of the structure shown. Where a SMILES comes first, the peptide text is derived from it.

What was measured:
[1] = tested on: all Gram-negative strains; assay: Mean MIC and therapeutic index, Gram-negative strains; format: cell-based; conditions: 7 Gram-negative strains of Table 3
Method: (§1) The antimicrobial activity of the peptides was determined against both Gram-positive and -negative bacteria including 14 MDR P. aeruginosa clinical isolates from Bhumibol Adulyadej Hospital (Tables 1 and 3). The minimal inhibitory concentration (MIC) of each peptide was measured according to a modification of the National Committee for Clinical Laboratory Standards (NCCLS) broth microdilution method as previously described. Briefly, bacterial cells in mid-log phase were cultured in Müeller-Hinton broth (MHB) and then diluted to 10^7 CFU/ml. […] Plates were incubated at 37 °C for 24 h, and MICs were defined as the lowest concentration of peptide that prevented visible turbidity. Cultures without peptides and uninoculated MHB were employed as positive and negative controls, respectively. Colony count assays were performed to determine the minimal bactericidal concentrations (MBCs) for determination of time-killing activity. As previously described, a 50 μl aliquot from each non-turbid well identified in the MIC determination experiment was spread on agar plates.
(§2) To further evaluate the global activity of these peptides, the geometric mean (GM) MIC and the therapeutic index (TI) of each were calculated (Table 3). The TI, a widely used parameter to evaluate cell selectivity and specificity of antimicrobial agents, was calculated as the ratio of MHC (the concentration that causes 10% hemolysis) to the geometric mean of MICs[22]. Higher TIs indicated greater cell selectivity and specificity.

[2] = tested on: all Gram-positive strains; assay: Mean MIC and therapeutic index, Gram-positive strains; format: cell-based; conditions: 5 Gram-positive strains of Table 3
Method: as §1, §2

[3] = tested on: Escherichia coli ATCC 25922; conditions: ATCC 25922, 24 h
[4] = tested on: Escherichia coli O157:H7 MT strain; conditions: E. coli O157:H7 MT strain; MHB, 37 °C, 24 h
[5] = tested on: Vibrio cholera O1 Inaba DMST 16261; conditions: MHB, 37 °C, 24 h
[6] = tested on: Staphylococcus aureus ATCC 25923; conditions: ATCC 25923, 24 h
[7] = tested on: Staphylococcus epidermidis ATCC 12228; conditions: ATCC 12228, 24 h
[8] = tested on: Enterococcus faecalis ATCC 29212; conditions: ATCC 29212, 24 h
[9] = tested on: Listeria monocytogenes 10403 s; conditions: 10403 s, 24 h
[10] = tested on: Gram-negative and -positive bacterial strains; assay: MIC against the panel of Gram-negative and -positive bacterial strains; format: cell-based; conditions: 12 strains of Table 3; result in words
[11] = tested on: Pseudomonas aeruginosa ATCC 27853; conditions: ATCC 27853, 24 h
[12] = tested on: Salmonella Typhimurium ATCC 13311; conditions: ATCC 13311, 24 h
[13] = tested on: Acinetobacter baumannii MT strain; conditions: MT strain, 24 h

SMILES | GM (Gr.− strains): geometric mean of MIC values from all Gram-negative strains [1] [µg/mL] | GM (Gr.+ strains): geometric mean of MIC values from all Gram-positive strains [2] [µg/mL] | MIC [3] [µg/mL] | MIC [4] [µg/mL] | MIC [5] [µg/mL] | MIC [6] [µg/mL] | MIC [7] [µg/mL] | MIC [8] [µg/mL] | MIC [9] [µg/mL] | antibacterial activity against tested microorganisms [10] | MIC [11] [µg/mL] | MIC [12] [µg/mL] | MIC [13] [µg/mL]
CC[C@H](C)[C@H](NC(=O)[C@H](CCCNC(=N)N)NC(=O)[C@H](CCCCN)NC(=O)[C@H](C)NC(=O)[C@@H](NC(=O)[C@@H](N)CCCCN)[C@@H](C)CC)C(=O)N[C@@H](Cc1c[nH]c2ccccc12)C(=O)N[C@@H](CCCCN)C(=O)N[C@H](C(=O)N[C@@H](CC(C)C)C(=O)N[C@@H](CCCNC(=N)N)C(=O)N[C@@H](CCCNC(=N)N)C(=O)N[C@@H](CCCNC(=N)N)C(=O)N[C@@H](CC(C)C)C(=O)N[C@@H](Cc1ccccc1)C(=O)N[C@@H](CCCNC(=N)N)C(=O)N[C@@H](CCCNC(=N)N)C(=O)N[C@H](C(=O)N[C@@H](CCCCN)C(=O)N[C@@H](CCCCN)C(=O)N[C@H](C(=O)N[C@@H](C)C(=O)NCC(N)=O)C(C)C)C(C)C)[C@@H](C)CC [P7A3] (H-KIAKRIWKILRRRLFRRVKKVAG-NH2; N-terminus assumed) | 42.97 | 12.50 | 15.63 (≈ 5.41 µM) | 250 (≈ 86.5 µM) | 7.81 (≈ 2.7 µM) | 15.63 (≈ 5.41 µM) | 3.91 (≈ 1.35 µM) | 31.25 (≈ 10.8 µM) | 3.91 (≈ 1.35 µM) |  |  |  | 
CC[C@H](C)[C@H](NC(=O)[C@H](CCCNC(=N)N)NC(=O)[C@H](CCCCN)NC(=O)[C@H](C)NC(=O)[C@@H](NC(=O)[C@@H](N)CCCCN)[C@@H](C)CC)C(=O)N[C@@H](Cc1c[nH]c2ccccc12)C(=O)N[C@@H](CCCCN)C(=O)N[C@H](C(=O)N[C@@H](CC(C)C)C(=O)N[C@@H](CCCNC(=N)N)C(=O)N[C@@H](CCCNC(=N)N)C(N)=O)[C@@H](C)CC [P7] (H-KIAKRIWKILRR-NH2; N-terminus assumed) | 28.46 | 121.09 | 15.63 (≈ 9.89 µM) | 125 (≈ 79.1 µM) | 31.25 (≈ 19.8 µM) | 62.5 (≈ 39.6 µM) | 3.91 (≈ 2.47 µM) | >250 | 7.81 (≈ 4.94 µM) | potent antibacterial activity | 7.81 (≈ 4.94 µM) | 7.81 (≈ 4.94 µM) | 7.81 (≈ 4.94 µM)
CC[C@H](C)[C@H](NC(=O)[C@H](CCCNC(=N)N)NC(=O)[C@H](CCCCN)NC(=O)[C@H](C)NC(=O)[C@@H](NC(=O)[C@@H](N)CCCCN)[C@@H](C)CC)C(=O)N[C@@H](Cc1c[nH]c2ccccc12)C(=O)N[C@@H](CCCCN)C(=O)N[C@H](C(=O)N[C@@H](CC(C)C)C(=O)N[C@@H](CCCNC(=N)N)C(=O)N[C@@H](CCCNC(=N)N)C(=O)N[C@@H](CCCNC(=N)N)C(=O)N[C@@H](CC(C)C)C(N)=O)[C@@H](C)CC [PA-14] (H-KIAKRIWKILRRRL-NH2; N-terminus assumed) | 14.23 | 30.86 | 15.63 (≈ 8.45 µM) | 62.5 (≈ 33.8 µM) | 7.81 (≈ 4.22 µM) | 15.63 (≈ 8.45 µM) | 3.91 (≈ 2.11 µM) | 125 (≈ 67.6 µM) | 1.95 (≈ 1.05 µM) |  | 3.91 (≈ 2.11 µM) | 1.95 (≈ 1.05 µM) | 3.91 (≈ 2.11 µM)
CC[C@H](C)[C@H](NC(=O)[C@H](CCCNC(=N)N)NC(=O)[C@H](CCCCN)NC(=O)[C@H](C)NC(=O)[C@@H](NC(=O)[C@@H](N)CCCCN)[C@@H](C)CC)C(=O)N[C@@H](Cc1c[nH]c2ccccc12)C(=O)N[C@@H](CCCCN)C(=O)N[C@H](C(=O)N[C@@H](CC(C)C)C(=O)N[C@@H](CCCNC(=N)N)C(=O)N[C@@H](CCCNC(=N)N)C(=O)N[C@@H](CCCNC(=N)N)C(=O)N[C@@H](CC(C)C)C(=O)N[C@@H](Cc1ccccc1)C(N)=O)[C@@H](C)CC [PA-15] (H-KIAKRIWKILRRRLF-NH2; N-terminus assumed) | 7.54 | 9.77 |  | 15.63 (≈ 7.83 µM) | 3.91 (≈ 1.96 µM) | 7.81 (≈ 3.91 µM) |  | 31.25 (≈ 15.7 µM) | 1.95 (≈ 0.977 µM) |  | 7.81 (≈ 3.91 µM) | 1.95 (≈ 0.977 µM) | 
CC[C@H](C)[C@H](NC(=O)[C@H](CCCNC(=N)N)NC(=O)[C@H](CCCCN)NC(=O)[C@H](C)NC(=O)[C@@H](NC(=O)[C@@H](N)CCCCN)[C@@H](C)CC)C(=O)N[C@@H](Cc1c[nH]c2ccccc12)C(=O)N[C@@H](CCCCN)C(=O)N[C@H](C(=O)N[C@@H](CC(C)C)C(=O)N[C@@H](CCCNC(=N)N)C(=O)N[C@@H](CCCNC(=N)N)C(=O)N[C@@H](CCCNC(=N)N)C(=O)N[C@@H](CC(C)C)C(=O)N[C@@H](Cc1ccccc1)C(=O)N[C@@H](CCCNC(=N)N)C(N)=O)[C@@H](C)CC [PA-16] (H-KIAKRIWKILRRRLFR-NH2; N-terminus assumed) | 13.67 | 7.03 | 7.81 (≈ 3.63 µM) | 62.5 (≈ 29 µM) | 3.91 (≈ 1.82 µM) | 7.81 (≈ 3.63 µM) |  | 15.63 (≈ 7.26 µM) |  |  | 7.81 (≈ 3.63 µM) | 1.95 (≈ 0.906 µM) | 7.81 (≈ 3.63 µM)
CC[C@H](C)[C@H](NC(=O)[C@H](CCCNC(=N)N)NC(=O)[C@H](CCCCN)NC(=O)[C@H](C)NC(=O)[C@@H](NC(=O)[C@@H](N)CCCCN)[C@@H](C)CC)C(=O)N[C@@H](Cc1c[nH]c2ccccc12)C(=O)N[C@@H](CCCCN)C(=O)N[C@H](C(=O)N[C@@H](CC(C)C)C(=O)N[C@@H](CCCNC(=N)N)C(=O)N[C@@H](CCCNC(=N)N)C(=O)N[C@@H](CCCNC(=N)N)C(=O)N[C@@H](CC(C)C)C(=O)N[C@@H](Cc1ccccc1)C(=O)N[C@@H](CCCNC(=N)N)C(=O)N[C@@H](CCCNC(=N)N)C(N)=O)[C@@H](C)CC [PA-17] (H-KIAKRIWKILRRRLFRR-NH2; N-terminus assumed) | 15.63 | 12.11 | 15.63 (≈ 6.77 µM) | 62.5 (≈ 27.1 µM) | 7.81 (≈ 3.38 µM) | 15.63 (≈ 6.77 µM) | 3.91 (≈ 1.69 µM) | 31.25 (≈ 13.5 µM) | 1.95 (≈ 0.845 µM) |  |  | 3.91 (≈ 1.69 µM) | 
CC[C@H](C)[C@H](NC(=O)[C@H](CCCNC(=N)N)NC(=O)[C@H](CCCCN)NC(=O)[C@H](C)NC(=O)[C@@H](NC(=O)[C@@H](N)CCCCN)[C@@H](C)CC)C(=O)N[C@@H](Cc1c[nH]c2ccccc12)C(=O)N[C@@H](CCCCN)C(=O)N[C@H](C(=O)N[C@@H](CC(C)C)C(=O)N[C@@H](CCCNC(=N)N)C(=O)N[C@@H](CCCNC(=N)N)C(=O)N[C@@H](CCCNC(=N)N)C(=O)N[C@@H](CC(C)C)C(=O)N[C@@H](Cc1ccccc1)C(=O)N[C@@H](CCCNC(=N)N)C(=O)N[C@@H](CCCNC(=N)N)C(=O)N[C@H](C(N)=O)C(C)C)[C@@H](C)CC [PA-18] (H-KIAKRIWKILRRRLFRRV-NH2; N-terminus assumed) | 45.76 | 12.11 | 31.25 (≈ 13 µM) | 250 (≈ 104 µM) | 7.81 (≈ 3.24 µM) | 15.63 (≈ 6.49 µM) | 3.91 (≈ 1.62 µM) | 31.25 (≈ 13 µM) | 1.95 (≈ 0.81 µM) |  |  | 3.91 (≈ 1.62 µM) | 15.63 (≈ 6.49 µM)
